# According to PMC9783783 (Pharmaceutics, 2022):
# Assays:
# in vitro = conditions: for fraction unbound at 24 h, 10 μg/mL: rat, plasma, pH 7.4, Plasma protein binding
# Procedure: Rat plasma (1 mL) from each group was dialyzed against 1 mL of isotonic Sørensen phosphate buffer (pH 7.4) containing 3% dextran (“the buffer”) via a Spectra/Por 2 membrane (molecular weight cutoff: 12,000–14,000 Da; Spectrum Medical Industries, Los Angeles, CA, USA). […] The binding percentage (%) was calculated as follows:(1) Binding %=CP−CB/CP×100
# in vivo = conditions: for AUC / clearance / CL renal / half-life / Vd / Cmax / bioavailability / Tmax: rat, in vivo; for clearance: CL; for CL renal: CLR; for half-life: Terminal half-life; for Vd: Vss; for bioavailability: F (absolute oral bioavailability), 20 mg/kg oral vs 10 mg/kg i.v.
# Procedure: All surgical procedures were performed following anesthesia with 100 mg/kg ketamine according to a previously reported method. For the intravenous study, the carotid artery and jugular vein were cannulated for blood sampling and drug administration, respectively. For the oral study, rats were restrained from food overnight but were allowed to drink water ad libitum. Only the carotid artery was cannulated for the blood sampling.
# A heparinized 0.9% NaCl-injectable solution (10 IU/mL) was immediately flushed into the carotid artery after collecting the blood samples to prevent blood clotting.
# The volume of the combined urine was then measured, and two 100 μL aliquot samples were collected. At the same time, the rat abdomen was surgically opened, and the whole gastrointestinal tract was collected in a beaker containing 50 mL methanol and cut into small pieces. After even mixing, 50 µL of the supernatant was collected.
# Pharmacokinetic parameters were estimated using the standard method by non-compartmental analysis (WinNonlin; Pharsight Corporation, Mountain View, CA, USA). AUC values were calculated using the trapezoidal rule–extrapolation method. The peak plasma concentration (Cmax) and time to reach Cmax (Tmax) were measured directly from the plasma concentration–time curves. […] The glomerular filtration rate was measured by calculating the CLCR, assuming that the kidney function was stable during the experimental period.
# [1] = Procedure: Enzyme kinetics in the hepatic and intestinal microsomes were determined according to a previously reported method. Microsomal protein concentrations in the liver and intestine were measured using bicinchoninic acid assay. […] The total volume was adjusted to 1 mL by adding 0.1 M phosphate-buffered solution (pH 7.4) to the system, and the samples were incubated for 15 min in a water-bath shaker at 37 °C at the rate of 50 oscillations per min. The reaction was completed by adding 2 volumes of methanol. Subsequently, two 50 μL aliquots of each reaction mixture were collected.
# [2] = human, oral; cited from earlier work
# [3] = rats, intraportal administration; cited from earlier work
# [4] = various pH buffers (pH 2–10) and gastric juice (pH 3.5), 24 h; cited from earlier work
# [5] = rats (n = 3), 10 mg/kg i.v.; cited from earlier work
# P-gp = conditions: cited from earlier work
# [6] = LC rats vs CON rats, 10 mg/kg i.v.
# [7] = LC rats vs CON rats, 20 mg/kg oral
# [8] = LC-ISN rats vs CON rats, 10 mg/kg i.v.
# [9] = LC-ISN rats vs CON rats, 20 mg/kg oral
# [10] = LC-ISN rats vs LC rats, 10 mg/kg i.v.
# [11] = LC-ISN rats vs LC rats, 20 mg/kg oral
# [12] = iv, 10 mg/kg, CON rats, 10 mg/kg i.v. 1 min infusion
# [13] = iv, 10 mg/kg, LC rats, 10 mg/kg i.v. 1 min infusion
# [14] = iv, 10 mg/kg, LC-ISN rats, 10 mg/kg i.v. 1 min infusion
# [15] = iv, 10 mg/kg, CON rats, 10 mg/kg i.v.
# [16] = iv, 10 mg/kg, LC rats, 10 mg/kg i.v.
# [17] = iv, 10 mg/kg, LC-ISN rats, 10 mg/kg i.v.
# [18] = po, 20 mg/kg, CON rats, 20 mg/kg oral
# [19] = po, 20 mg/kg, LC rats, 20 mg/kg oral
# [20] = po, 20 mg/kg, LC-ISN rats, 20 mg/kg oral
# [21] = hepatic microsomes, LC rats vs CON rats
smiles,measurement,setting,value
"CC1CCN(C(=O)CC#N)CC1N(C)c1ncnc2[nH]ccc12 (stereo not drawn) [tofacitinib, 3-(4-methyl-3-(methyl(7H-pyrrolo[2,3-d]pyrimidin-4yl)amino)piperidin-1-yl)-3-oxopropanenitrile]",Decrease in plasma protein binding,in vitro; LC rats vs CON rats,28.3%
same,Decrease in plasma protein binding,in vitro; LC-ISN rats vs CON rats,21.5%
same,"fraction unbound at 24 h, 10 μg/mL","in vitro; CON rat plasma, 10 μg/mL tofacitinib, 37 °C, 24 h",0.749
same,"fraction unbound at 24 h, 10 μg/mL","in vitro; LC rat plasma, 10 μg/mL tofacitinib, 37 °C, 24 h",0.82
same,"fraction unbound at 24 h, 10 μg/mL","in vitro; LC-ISN rat plasma, 10 μg/mL tofacitinib, 37 °C, 24 h",0.803
same,"fraction unbound at 24 h, 10 μg/mL","in vitro; range over CON, LC and LC-ISN rats",0.749 to 0.82
same,Ae0–24 h (excreted in urine as unchanged for 24 h),"in vivo; CON rats, 10 mg/kg i.v.",13.9 ± 2.28 % of dose
same,CLNR,"in vivo; CON rats, 10 mg/kg i.v.",21.1 ± 4.57 mL/min/kg
same,GI24 h (remained in the gastrointestinal tract at 24 h),"in vivo; CON rats, 10 mg/kg i.v.",0.164 ± 0.102 % of dose
same,Ae0–24 h,"in vivo; CON rats, 20 mg/kg oral",11.8 ± 4.08 % of dose
same,GI24 h,"in vivo; CON rats, 20 mg/kg oral",0.106 ± 0.101 % of dose
same,Greater Ae0–24 h,in vivo; [6],189%
same,Increase in AUC,in vivo; [6],158%
same,Increase in Vss,in vivo; [6],86.0%
same,Longer terminal half-life,in vivo; [6],219%
same,Slower CL,in vivo; [6],54.4%
same,Slower CLNR,in vivo; [6],69.9%
same,Increase in AUC,in vivo; [7],429%
same,Increase in Ae0–24 h,in vivo; [7],203%
same,Increase in Cmax,in vivo; [7],158%
same,Increase in F,in vivo; [7],105%
same,Ae0–24 h (excreted in urine as unchanged for 24 h),"in vivo; LC rats, 10 mg/kg i.v.",40.2 ± 18.9 % of dose
same,CLNR,"in vivo; LC rats, 10 mg/kg i.v.",6.35 ± 1.27 mL/min/kg
same,GI24 h (remained in the gastrointestinal tract at 24 h),"in vivo; LC rats, 10 mg/kg i.v.",2.07 ± 2.12 % of dose
same,Ae0–24 h,"in vivo; LC rats, 20 mg/kg oral",35.8 ± 16.9 % of dose
same,GI24 h,"in vivo; LC rats, 20 mg/kg oral",1.73 ± 2.04 % of dose
same,Greater Ae0–24 h,in vivo; [8],117%
same,Increase in terminal half-life,in vivo; [8],64.4%
same,Slower CL,in vivo; [8],42.7%
same,Slower CLNR,in vivo; [8],54.1%
same,Increase in AUC,in vivo; [9],223%
same,Increase in Ae0–24 h,in vivo; [9],204%
same,Increase in Cmax,in vivo; [9],72.2%
same,Increase in F,in vivo; [9],92.9%
same,Decrease in AUC,in vivo; [10],35.1%
same,Decrease in terminal half-life,in vivo; [10],48.5%
same,Decrease in AUC,in vivo; [11],38.9%
same,Decrease in Cmax,in vivo; [11],33.2%
same,Ae0–24 h (excreted in urine as unchanged for 24 h),"in vivo; LC-ISN rats, 10 mg/kg i.v.",30.1 ± 12.3 % of dose
same,CLNR,"in vivo; LC-ISN rats, 10 mg/kg i.v.",9.68 ± 2.40 mL/min/kg
same,GI24 h (remained in the gastrointestinal tract at 24 h),"in vivo; LC-ISN rats, 10 mg/kg i.v.",0.166 ± 0.135 % of dose
same,Ae0–24 h,"in vivo; LC-ISN rats, 20 mg/kg oral",35.9 ± 16.8 % of dose
same,GI24 h,"in vivo; LC-ISN rats, 20 mg/kg oral",0.340 ± 0.288 % of dose
same,AUC,in vivo; [12],7330 ng·h/mL
same,AUC,in vivo; [13],18900 ng·h/mL
same,AUC,in vivo; [14],12300 ng·h/mL
same,clearance,in vivo; [15],24.1 ± 6.27 mL/min/kg
same,clearance,in vivo; [16],11 ± 2.06 mL/min/kg
same,clearance,in vivo; [17],13.8 ± 1.73 mL/min/kg
same,CL renal,in vivo; [15],3.73 ± 1.09 mL/min/kg
same,CL renal,in vivo; [16],4.65 ± 2.74 mL/min/kg
same,CL renal,in vivo; [17],4.1 ± 1.64 mL/min/kg
same,half-life,in vivo; [12],35.4 ± 19.2 min
same,half-life,in vivo; [13],113 ± 43.7 min
same,half-life,in vivo; [14],58.2 ± 16.8 min
same,Vd,in vivo; [15],0.429 ± 0.253 L/kg
same,Vd,in vivo; [16],0.798 ± 0.177 L/kg
same,Vd,in vivo; [17],0.8 ± 0.326 L/kg
same,AUC,in vivo; [18],6400 ng·h/mL
same,AUC,in vivo; [19],33800 ng·h/mL
same,AUC,in vivo; [20],20700 ng·h/mL
same,CL renal,in vivo; [18],6.98 ± 2.99 mL/min/kg
same,CL renal,in vivo; [19],3.62 ± 1.78 mL/min/kg
same,CL renal,in vivo; [20],5.71 ± 2.47 mL/min/kg
same,Cmax,in vivo; [18],3530 ± 1460 ng/mL
same,Cmax,in vivo; [19],9100 ± 1260 ng/mL
same,Cmax,in vivo; [20],6080 ± 1990 ng/mL
same,bioavailability,"in vivo; po, 20 mg/kg, CON rats",43.6%
same,bioavailability,"in vivo; po, 20 mg/kg, LC rats",89.5%
same,bioavailability,"in vivo; po, 20 mg/kg, LC-ISN rats",84.1%
same,Tmax,in vivo; [18],50 min
same,Tmax,in vivo; [19],55.7 min
same,Tmax,in vivo; [20],85.7 min
same,GI24 h,"in vivo; the three groups of rats, 20 mg/kg oral",less than 1.73 % of the oral dose
same,Km for disappearance of tofacitinib,"[1]; hepatic microsomes, CON, LC and LC-ISN rats",comparable among the three groups of rats
same,Decrease in hepatic CLint,[1]; [21],64.9%
same,Slower Vmax for disappearance of tofacitinib,[1]; [21],63.4%
same,Hepatic CLint recovered to % of CON rats,"[1]; hepatic microsomes, LC-ISN rats vs CON rats",92.2%
same,Intestinal CLint,"[1]; intestinal microsomes, CON, LC and LC-ISN rats",not significantly different among the three groups of rats
same,Fraction excreted by the kidneys in unmetabolized form,[2],30%
same,Hepatic first-pass effect,[3],42.0%
same,Stability,[4],stable
same,Biliary excretion,[5],0.703 % of the unchanged drug dose
same,P-gp substrate,P-gp,substrate of P-gp
